Like-named read-outs stand apart in the source and are kept apart here.
System: ApoB-100-associated lipoproteins released from HepG2 cells
Assay: Inhibition of the release of ApoB-100-associated lipoproteins from cultured hepatic HepG2 cells (immunoassay for human LDL)
Assay type: cell-based
Settings: culture supernatant, absorption at 450 nm inhibited by 50% vs solvent control, read-out: Apo B IC50
Description: 1. Inhibition of the Release of ApoB-100-associated Lipoproteins
The test for detection of the inhibition of the release of ApoB-100-associated lipoproteins from hepatic cells was carried out in vitro with cultured hepatic cells, preferably with cells of the human line HepG2. These cells are cultured under standard conditions in medium for culture of eukaryotic cells, preferably in RPMI 1640 with 10% foetal calf serum. HepG2 cells synthesize and secrete into the culture supernatant ApoB-100-associated lipoprotein particles, which are in principle built up similarly to the VLDL and LDL particles which are to be found in plasma.
These particles can be detected with an immunoassay for human LDL. This immunoassay is carried out with antibodies which have been induced against human LDL in rabbits under standard conditions. The anti-LDL antibodies (rab-anti-LDL-Ab) were purified by affinity chromatography on an immunosorbent with human LDL. These purified rab-anti-LDL-Ab are adsorbed onto the surface of plastic. This adsorption is expediently carried out on the plastic surface of microtiter plates with 96 wells, preferably on MaxiSorp plates. If ApoB-100-associated particles are present in the supernatant of Hep-G2 cells, these can bond to the insolubilized rab-anti-LDL-Ab, and an immune complex bonded to the plastic surface is formed. Non-bonded proteins are removed by washing The immune complex on the plastic source is detected with monoclonal antibodies, which have been induced against human LDL and purified under standard conditions. These antibodies were conjugated with the enzyme peroxidase. Peroxidase converts the colourless substrate TMB into a coloured product in the presence of H2 O2. After acidification of the reaction mixture with H2 SO4, the specific absorption of light is determined at 450 nm, this being a measure of the amount of ApoB-100-associated particles wich had been secreted by the HepG2 cells into the culture supernatant.
The IC50 value indicates the concentration of substance at which the absorption of light is inhibited by 50% compared with the control (solvent control without the substance).

[1] = Homo sapiens, HepG2, HepG2 cells

| Compound | IC50 [1] [µM] | IC50 (HepG2 cells) [µM] |
| --- | --- | --- |
| CSc1nc2ccccc2n1Cc1ccc(C(C(=O)N[C@@H](CO)c2ccccc2)C2CCCC2)cc1 (single isomer, unassigned) [Example 3] | – | 0.0116 |
| CSc1nc2ccccc2n1Cc1ccc(C(C(=O)N[C@@H](CO)c2ccccc2)C2CCCC2)cc1 (single isomer, unassigned) [Example 4] | – | 0.298 |
| CSc1nc2ccccc2n1Cc1ccc(C(C(=O)N[C@@H](CO)c2ccccc2)C2CCCCCC2)cc1 (single isomer, unassigned) [Example 6] | – | 0.008 |
| CSc1nc2ccccc2n1Cc1ccc(C(C(=O)N[C@@H](CO)c2ccccc2)C2CCCCCC2)cc1 (single isomer, unassigned) [Example 7] | – | 0.15 |
| O=C(N[C@@H](CO)c1ccccc1)C(c1ccc(Cn2c(SCc3ccccc3)nc3ccccc32)cc1)C1CCCC1 (single isomer, unassigned) [Example 12] | 0.0126 | – |
| O=C(CSc1nc2ccccc2n1Cc1ccc(C(C(=O)N[C@@H](CO)c2ccccc2)C2CCCC2)cc1)c1ccccc1 (single isomer, unassigned) [Example 18] | – | 0.93 |
| O=C(CSc1nc2ccccc2n1Cc1ccc(C(C(=O)N[C@@H](CO)c2ccccc2)C2CCCC2)cc1)c1ccccc1 (single isomer, unassigned) [Example 19] | – | 0.388 |
| Cc1cc2nc(C(F)(F)F)n(Cc3ccc(C(C(=O)N[C@@H](CO)c4ccccc4)C4CCCC4)cc3)c2cc1C (single isomer, unassigned) [Example 24] | – | 0.0163 |
| O=C(N[C@@H](CO)c1ccccc1)C(c1ccc(Cn2c(-c3cscn3)nc3ccccc32)cc1)C1CCCC1 (single isomer, unassigned) [Example 26] | – | 0.0045 |
| O=C(N[C@@H](CO)c1ccccc1)C(c1ccc(Cn2c(-c3cscn3)nc3ccccc32)cc1)C1CCCC1 (single isomer, unassigned) [Example 27] | – | 0.0909 |
| O=C(N[C@@H](CO)c1ccccc1)C(c1ccc(Cn2c(-c3cscn3)nc3ccccc32)cc1)C1CCCCCC1 (single isomer, unassigned) [Example 30] | – | 0.112 |
| Cc1nc(-c2nc3ccccc3n2Cc2ccc(C(C(=O)N[C@@H](CO)c3ccccc3)C3CCCC3)cc2)cs1 (single isomer, unassigned) [Example 34] | – | 0.0266 |
| Cc1nc2ccccc2c(=O)n1Cc1ccc(C(C(=O)N[C@@H](CO)c2ccccc2)C2CCCC2)cc1 (stereo partly drawn) [Example 1, 2-Cyclopentyl-N-(2-hydroxy-1-(R)-phenylethyl)-2-[4-(2-methyl-4-oxo-4H-quinazolin-3-yl-methyl)phenyl]acetamide] | 0.0444 | – |
| CSc1nc2ccccc2n1Cc1ccc(C(C(=O)N[C@@H](CO)c2ccccc2)C2CCCC2)cc1 (some centres unmarked) [Example 2] | 0.0381 | – |
| CSc1nc2ccccc2n1Cc1ccc(C(C(=O)N[C@@H](CO)c2ccccc2)C2CCCCCC2)cc1 (some centres unmarked) [Example 5] | 0.036 | – |
| CSc1nc2cc(C)c(C)cc2n1Cc1ccc(C(C(=O)N[C@@H](CO)c2ccccc2)C2CCCC2)cc1 (some centres unmarked) [Example 8] | 0.0047 | – |
| O=C(N[C@@H](CO)c1ccccc1)C(c1ccc(Cn2c(SCc3ccccc3)nc3ccccc32)cc1)C1CCCC1 (some centres unmarked) [Example 11] | 0.0047 | – |
| O=C(N[C@@H](CO)c1ccccc1)C(c1ccc(Cn2c(SCc3c(Cl)cccc3Cl)nc3ccccc32)cc1)C1CCCC1 (some centres unmarked) [Example 14] | 0.13 | – |
| O=C(N[C@@H](CO)c1ccccc1)C(c1ccc(Cn2c(-c3cscn3)nc3ccccc32)cc1)C1CCCC1 (some centres unmarked) [Example 25] | 0.0073 | – |

| Compound | IC50 [1] [µM] | IC50 (HepG2 cells) [µM] |
| --- | --- | --- |
| O=C(N[C@@H](CO)c1ccccc1)C(c1ccc(Cn2c(-c3cscn3)nc3ccccc32)cc1)C1CCCCC1 (some centres unmarked) [Example 28] | 0.0279 | – |
| O=C(N[C@@H](CO)c1ccccc1)C(c1ccc(Cn2c(-c3cscn3)nc3ccccc32)cc1)C1CCCCCC1 (some centres unmarked) [Example 29] | 0.0093 | – |
| O=C(NCc1ccccc1)C(c1ccc(Cn2c(-c3cscn3)nc3ccccc32)cc1)C1CCCCCC1 (centres unmarked) [Example 32] | 0.0053 | – |
| Cc1nc(-c2nc3ccccc3n2Cc2ccc(C(C(=O)N[C@@H](CO)c3ccccc3)C3CCCC3)cc2)cs1 (some centres unmarked) [Example 33] | 0.0053 | – |
| Cc1ccc2c(nc(-c3ccsc3)n2Cc2ccc(C(C(=O)N[C@@H](CO)c3ccccc3)C3CCCC3)cc2)c1C (some centres unmarked) [Example 38] | 0.0363 | – |
| O=C(N[C@@H](CO)c1ccccc1)C(c1ccc(Cn2c(-c3cccs3)nc3ccccc32)cc1)C1CCCC1 (some centres unmarked) [Example 39] | 0.0817 | – |
| O=C(N[C@@H](CO)c1ccccc1)C(c1ccc(Cn2c(-c3cc4ccccc4s3)nc3ccccc32)cc1)C1CCCC1 (some centres unmarked) [Example 41] | 0.0106 | – |
| O=C(N[C@@H](CO)c1ccccc1)C(c1ccc(Cn2c(-c3ccccn3)nc3ccccc32)cc1)C1CCCC1 (some centres unmarked) [Example 44] | 0.0113 | – |
| O=C(N[C@@H](CO)c1ccccc1)C(c1ccc(Cn2c(-c3cccnc3)nc3ccccc32)cc1)C1CCCC1 (some centres unmarked) [Example 49] | 0.0036 | – |
| O=C(N[C@@H](CO)c1ccccc1)C(c1ccc(Cn2c(=S)[nH]c3ccccc32)cc1)C1CCCCCC1 (some centres unmarked) [Example 52] | 0.518 | – |
| Cc1cccc2c1[nH]c(=S)n2Cc1ccc(C(C(=O)N[C@@H](CO)c2ccccc2)C2CCCC2)cc1 (some centres unmarked) [Example 54] | – | 0.0602 |
| Cc1cccc2c1[nH]c(=S)n2Cc1ccc(C(C(=O)N[C@@H](CO)c2ccccc2)C2CCCC2)cc1 (some centres unmarked) [Example 55] | – | 0.0195 |
| O=C(N[C@@H](CO)c1ccccc1)C(c1ccc(CN2C(=O)COc3cccnc32)cc1)C1CCCCCC1 (some centres unmarked) [Example 57] | – | 0.005 |
| O=C(N[C@@H](CO)c1ccccc1)C(c1ccc(CN2C(=O)COc3cccnc32)cc1)C1CCCCCC1 (some centres unmarked) [Example 58] | – | 0.251 |
| O=C(N[C@@H](CO)c1ccccc1)C(c1ccc(CN2C(=O)CSc3ccccc32)cc1)C1CCCCCC1 (some centres unmarked) [Example 59] | 0.0292 | – |
| O=C(N[C@@H](CO)c1ccccc1)C(c1ccc(CN2C(=O)c3ccccc3C2=O)cc1)C1CCCCCC1 (some centres unmarked) [Example 60] | – | 0.0097 |
| O=C(N[C@@H](CO)c1ccccc1)C(c1ccc(CN2C(=O)c3ccccc3C2=O)cc1)C1CCCCCC1 (some centres unmarked) [Example 61] | – | 0.0389 |
| O=C(N[C@@H](CO)c1ccccc1)C(c1ccc(CN2C(=O)c3ccccc3C2=O)cc1)C1CCCCCC1 (some centres unmarked) [Example 62] | – | 0.123 |

The remaining lines, values ahead:

| IC50 [1] [µM] | IC50 (HepG2 cells) [µM] | Compound |
| --- | --- | --- |
| 0.0152 | – | C[S+]([O-])c1nc2ccccc2n1Cc1ccc(C(C(=O)N[C@@H](CO)c2ccccc2)C2CCCCCC2)cc1 (mixture of isomers) [Example 79, 2-(R/S)-Cycloheptyl-N-(2-hydroxy-1-(R)-phenylethyl)-2-[4-(2-methyl-(R/S)-sulphinyl-benzimidazol-1-ylmethyl)phenyl]acetamide] |
| – | 0.0143 | O=C(N[C@@H](CO)c1ccccc1)C(c1ccc(Cn2c(SCc3ccccc3)nc3ccccc32)cc1)C1CCCC1 (single isomer, unassigned) [Example 13] |
| – | 0.147 | Cc1cc2nc(C(F)(F)F)n(Cc3ccc(C(C(=O)N[C@@H](CO)c4ccccc4)C4CCCC4)cc3)c2cc1C (single isomer, unassigned) [Example 23] |
| – | 0.0073 | O=C(N[C@@H](CO)c1ccccc1)C(c1ccc(Cn2c(-c3cscn3)nc3ccccc32)cc1)C1CCCCCC1 (single isomer, unassigned) [Example 31] |
| – | 0.0112 | Cc1nc(-c2nc3ccccc3n2Cc2ccc(C(C(=O)N[C@@H](CO)c3ccccc3)C3CCCC3)cc2)cs1 (single isomer, unassigned) [Example 35] |
| 0.0028 | – | CCSc1nc2ccccc2n1Cc1ccc(C(C(=O)N[C@@H](CO)c2ccccc2)C2CCCC2)cc1 (some centres unmarked) [Example 9] |
| 0.0095 | – | C=CCSc1nc2ccccc2n1Cc1ccc(C(C(=O)N[C@@H](CO)c2ccccc2)C2CCCC2)cc1 (some centres unmarked) [Example 10] |
| 0.248 | – | O=C(N[C@@H](CO)c1ccccc1)C(c1ccc(Cn2c(Cc3ccccc3)nc3ccccc32)cc1)C1CCCC1 (some centres unmarked) [Example 20] |
| 0.0091 | – | O=C(N[C@@H](CO)c1ccccc1)C(c1ccc(Cn2c(-c3csc(-c4ccccc4)n3)nc3ccccc32)cc1)C1CCCC1 (some centres unmarked) [Example 36] |
| 0.0036 | – | O=C(N[C@@H](CO)c1ccccc1)C(c1ccc(Cn2c(-c3ccsc3)nc3ccccc32)cc1)C1CCCC1 (some centres unmarked) [Example 37] |
| 0.069 | – | Cc1ccc2c(nc(-c3cccs3)n2Cc2ccc(C(C(=O)N[C@@H](CO)c3ccccc3)C3CCCC3)cc2)c1C (some centres unmarked) [Example 40] |
| 0.0188 | – | O=C(N[C@@H](CO)c1ccccc1)C(c1ccc(Cn2c(-c3ccccn3)nc3ccccc32)cc1)C1CCCCCC1 (some centres unmarked) [Example 47] |
| 0.0063 | – | O=C(NCc1ccccc1)C(c1ccc(Cn2c(-c3ccccn3)nc3ccccc32)cc1)C1CCCCCC1 (centres unmarked) [Example 48] |
| 0.0179 | – | O=C(N[C@@H](CO)c1ccccc1)C(c1ccc(Cn2c(-c3ccncc3)nc3ccccc32)cc1)C1CCCC1 (some centres unmarked) [Example 50] |
| 0.0057 | – | O=C(N[C@@H](CO)c1ccccc1)C(c1ccc(Cn2c(=O)oc3ccccc32)cc1)C1CCCCCC1 (some centres unmarked) [Example 51] |
| – | 1.69 | Cc1cccc2c1[nH]c(=S)n2Cc1ccc(C(C(=O)N[C@@H](CO)c2ccccc2)C2CCCC2)cc1 (some centres unmarked) [Example 53] |
